From the supplement of paper PMC10307832

Key:
Test in all cases: relative viability (nuclei count vs DMSO), 5 days (fraction); higher = more cells survive
[1] = compound: C1=CC=C2C(=C1)C=CC(=C2SSC3=C(C=CC4=CC=CC=C43)O)O [IPA-3] + Cc1nc(Nc2ncc(C(=O)Nc3c(C)cccc3Cl)s2)cc(N2CCN(CCO)CC2)n1 [Dasatinib] (partner 0.075 µM)
How it was run: (§1)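 Lung cancer cell lines were pin-tool dosed in 1536-well plates on the day after seeding, with either a lone drug or a fixed anchor-drug dose plus five library-drug doses (not always all listed) in √10 steps. Nuclei were counted on 4× images after 5 days. Relative viability is the ratio of treated-well to vehicle-well nuclei counts, with each value a median of duplicate plates.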

[2] = compound: Cc1ccc(-n2nc(C(C)(C)C)cc2NC(=O)Nc2ccc(OCCN3CCOCC3)c3ccccc23)cc1 [Doramapimod] + Cc1nc(Nc2ncc(C(=O)Nc3c(C)cccc3Cl)s2)cc(N2CCN(CCO)CC2)n1 [Dasatinib] (partner 0.075 µM)
How it was run: as §1

[3] = compound: Cn1c(Nc2ccc(C(F)(F)F)cc2)nc2cc(Oc3ccnc(-c4ncc(C(F)(F)F)[nH]4)c3)ccc21 [RAF265] + CS(=O)(=O)CCNCc1ccc(-c2ccc3ncnc(Nc4ccc(OCc5cccc(F)c5)c(Cl)c4)c3c2)o1 [Lapatinib] (partner 2 µM)
How it was run: as §1

[4] = compound: Cn1c(Nc2ccc(C(F)(F)F)cc2)nc2cc(Oc3ccnc(-c4ncc(C(F)(F)F)[nH]4)c3)ccc21 [RAF265] + N=C(N)NC(=N)NCCc1ccccc1 [Phenformin] (partner 250 µM)
How it was run: as §1

Cell Line	relative viability ([1]; first compound 0.2 µM)	relative viability ([1]; first compound 0.6325 µM)	relative viability ([1]; first compound 2 µM)	relative viability ([1]; first compound 6.325 µM)	relative viability ([1]; first compound 20 µM)	relative viability ([2]; first compound 0.02 µM)	relative viability ([2]; first compound 0.06325 µM)	relative viability ([2]; first compound 0.2 µM)	relative viability ([2]; first compound 0.6325 µM)	relative viability ([2]; first compound 2 µM)	relative viability ([3]; first compound 0.01 µM)	relative viability ([3]; first compound 0.03162 µM)	relative viability ([3]; first compound 0.1 µM)	relative viability ([3]; first compound 0.3162 µM)	relative viability ([3]; first compound 1 µM)	relative viability ([4]; first compound 0.01 µM)	relative viability ([4]; first compound 0.03162 µM)	relative viability ([4]; first compound 0.1 µM)	relative viability ([4]; first compound 0.3162 µM)	relative viability ([4]; first compound 1 µM)
201T	0.576	0.57	0.604	0.616	0.65	0.611	0.571	0.49	0.598	0.517	1.02	1.04	1.04	1.06	1.04	0.392	0.422	0.453	0.434	0.38
PC-14	0.29	0.278	0.271	0.268	0.309	0.282	0.274	0.28	0.341	0.243	0.339	0.331	0.403		0.383	0.578	0.599	0.864		0.539
NCI-H1650	0.331	0.301	0.323	0.404	0.295	0.366	0.294	0.338	0.402	0.217	0.844	0.749	0.874	0.325	0.637	0.55	0.438	0.49	0.333	0.361
NCI-H727	0.295	0.423	0.328	0.385	0.389	0.352	0.341	0.283	0.353	0.388	0.915	0.736	0.963	1.1	0.371	0.531	0.502	0.452	0.341	0.398
NCI-H1792	1.01	0.81	0.807	0.895	1.03	0.727	0.645	0.713	0.645	0.654	0.928	0.843	0.946	0.913	0.593	0.394	0.182	0.186	0.0818	0.0945
COR-L23	0.679	0.506	0.503	0.46	0.125	0.527	0.554	0.5	0.545	0.513	1.02	0.982	1.02	0.748	0.62	0.507	0.395	0.344	0.315	0.258
HOP-62	0.807	0.577	0.71	0.589	0.67	0.618	0.705	0.633	0.843	0.594	1.12		0.934	1.05	0.792	0.676	0.505	0.638	0.557	0.576
NCI-H1915	0.317	0.297	0.312	0.316	0.334	0.304	0.327	0.316	0.354	0.307	0.968	0.92	0.909	0.715	0.371	0.364	0.341	0.265	0.203	0.183
BEN	0.471	0.35	0.323	0.342	0.283	0.34	0.349	0.317	0.345	0.273	0.726	0.76	0.945	0.831	0.557	0.276	0.267	0.274	0.263	0.239
NCI-H1437	0.542	0.411	0.286	0.501	0.718	0.466	0.459	0.437	0.596	0.323	0.897	0.776	0.77	0.784	0.78	0.352	0.388	0.287	0.329	0.242
EMC-BAC-2	0.309	0.458	0.302	0.311	0.292	0.451	0.279	0.297	0.419	0.283	0.908	0.856	0.857	0.993	0.449	0.544	0.457	0.339	0.336	0.125
NCI-H647	0.271	0.175	0.192	0.115	0.0437	0.179	0.19	0.157	0.21	0.147	1.19	0.937	0.828	0.711	0.809	0.432	0.515	0.38	0.282	0.212
LXF-289	0.279	0.264	0.28	0.176	0.237	0.229	0.216	0.207	0.252	0.247	0.942	0.953	0.858	0.785	0.743	0.52	0.526	0.476	0.372	0.338
LOU-NH91	0.628	0.568	0.573	0.542	0.697	0.559	0.535	0.599	0.671	0.365	0.763	0.719	0.664	0.808	0.572	0.86	0.639	0.721	0.64	0.52
NCI-H23	0.598	0.795	0.861	0.724	0.617	0.734	0.709	0.856	0.836	0.759	1.2	0.87	0.75	0.545	0.409	0.754	0.749	0.669	0.544	0.59
NCI-H1993	0.567	1.77	0.63	0.364	0.585	0.885	0.638	0.505	0.705	0.559	0.789	0.833	0.995	0.908	0.967	0.455	0.586	0.502	0.603	0.479
HCC-827	0.419	0.358	0.405	0.302	0.292	0.272	0.238	0.286	0.355	0.142	0.186	0.197	0.196		0.147	0.431	0.444	0.41		0.398
NCI-H650	0.461	0.498	0.439	0.438	0.44	0.517	0.535	0.571	0.586	0.431	0.959	0.849	0.922	0.602	0.328	0.469	0.438	0.383	0.348	0.289
CAL-12T	0.627	0.418	0.379	0.409	0.524	0.521	0.371	0.306	0.44	0.348	0.68	0.653	0.825	0.598	0.449	0.581	0.521	0.426	0.516	0.363
NCI-H838	0.32	0.234	0.291	0.319	0.328	0.279	0.327	0.315	0.326	0.298	1.02	0.927	0.972	0.971	0.885	0.733	0.606	0.521	0.499	0.517
NCI-H2228	0.571	0.51	0.529	0.62	0.557	0.561	0.48	0.452	0.49	0.398	1.25	0.859	1.24	0.416	0.43	0.287	0.387	0.357	0.203	0.186
RERF-LC-KJ	0.983	0.729	0.837	0.759	0.789	0.88	0.709	0.729	0.769	0.768	0.837	0.776	0.827	0.784	0.679	0.469	0.42	0.389	0.408	0.376
NCI-H661	1.06	0.871	0.656	0.867	0.787	0.703	0.855	1.04	1.19	0.909	0.539	0.466	0.532	0.442	0.308	0.258	0.27	0.275	0.281	0.261
HCC-366	0.892	0.613	0.604	0.656	0.679	0.605	0.549	0.548	0.548	0.458	1.03	1.08	1.23	1.02	1.05	0.594	0.552	0.596	0.435	0.45
SK-LU-1	0.171	0.148	0.204	0.179	0.193	0.16	0.182	0.195	0.204	0.218	0.685	0.669	0.669	0.61	0.34	0.543	0.377	0.385	0.26	0.234
A-427	0.682	0.632	0.634	0.713	0.72	0.728	0.768	0.733		0.672	1.06	0.949	1.06	1.11	0.713	0.361	0.266	0.307	0.204	0.124
SW 1573	0.689	0.395	0.589	0.452	0.151	0.461	0.394	0.588	0.685	0.411	1.15	1.18	1.18	1.04	0.824	0.373	0.336	0.353	0.296	0.265
